The test system of one data set is RAW264.7 cells. As to the kind of experiment: Macrophage viability in the same high content assay. The conditions noted are these: for Intracellular activity Cytotoxicity TC50 / Intracellular RAW TC50: infected RAW264.7 macrophages; for Intracellular activity Cytotoxicity TC50: 72 h; for Intracellular RAW TC50: SAR tables 4-8; for selectivity index (SI): HepG2 cells and/or macrophages, cell line not specified.

The test system of data set [1] is M. tuberculosis. As to the kind of experiment: Minimum inhibitory concentration in liquid medium (axenic culture). The format is cell-based, Mycobacterium tuberculosis. The conditions noted are these: for IC50: read-out: Anti-tubercular activity in axenic culture IC50.
Another data set relates to HepG2 cells. As to the kind of experiment: HepG2 cytotoxicity (CellTiter-Glo, 72 h). The format is cell-based, human. The conditions noted are these: for HepG2 cytotoxicity TC50 Galactose / HepG2 cytotoxicity TC50 Glucose: human, 72 h; for selectivity (SI) for HepG2: HepG2 cytotoxicity / intracellular IC50. How it is done: (§1) Cytotoxicity against HepG2 cells was measured after 72 h. Cells were seeded in 384-well plates at 1,800 cells per well. Compounds were added as a 10-point three-fold serial dilution after 24 h (final assay concentration of 1% DMSO). CellTiter-Glo® reagent (Promega) was added and relative luminescence units (RLU) measured. Data were normalized to the DMSO controls. Curves were fitted using the Levenberg–Marquardt algorithm; TC50 was calculated as the compound concentration required to reduce cell viability by 50%.
(§2) We further evaluated cytotoxicity using the HepG2 cell line cultured with either glucose or galactose in the medium (Table 2). HepG2 cells cultured with galactose rely on mitochondrial oxidative phosphorylation rather than glycolysis which increases their susceptibility to mitochondrial toxicants allowing us to identify compounds with mitochondrial toxicity ([Kamalian et al., 2015]).
Background: Cellular ATP, detected with luciferase, serves as a proxy for viable cell number.

The nature of data set [2]: HepG2 cytotoxicity (CellTiter-Glo, 72 h). The conditions noted are these: human. It counts as cell-based, human. The method, then: as §1, §2
The test system of data set [3] is M. tuberculosis. As to the kind of experiment: High content assay of intracellular M. tuberculosis growth in infected RAW264.7 macrophages. It counts as cell-based, Mycobacterium tuberculosis H37Rv-LP. How it is done: Compounds were obtained in 384-well plates as 10 mM DMSO stock solutions and tested as described ([Manning et al., 2017]). Briefly, assay plates were prepared in clear bottom, black 384-well plates with 30 μl cRPMI and 0.6 μl compound in columns 3–22 (final concentration of 10 μM compound, 1% DMSO). […] INH and STA were also included in dose response on each plate. RAW264.7 cells were infected with M. tuberculosis DREAM8 as described ([Manning et al., 2017]) at an MOI of 1 for 24 h and extracellular bacteria removed by washing. Cells were recovered using Accumax, harvested, washed and resuspended in serum-free RPMI; 30 μl of infected cells were dispensed into each well at 3,300 cells/well. Plates were incubated for 72 h, 10 μl of 5X SYBR Green I was added and plates were imaged with an ImageXpress Micro High Content Screening System (Molecular Devices) using a ×4 objective and FITC and Texas Red channels. MetaXpress was used to analyze images. The integrated intensity of M. tuberculosis or macrophages was calculated for each well. Growth inhibition was calculated for each test well by normalizing to the average integrated intensity of the DMSO control wells. IC50 was calculated as the compound concentration required to reduce bacterial growth by 50%. TC50 was calculated as the compound concentration required to reduce macrophage viability by 50%.

The mark [4] stands for this setting: Mycobacterium tuberculosis, 120 h, extracellular, 5 days, OD590.
Where [5] appears, read: Mycobacterium tuberculosis, 120 h, extracellular, 5 days, OD590, read-out: Anti-tubercular activity in axenic culture IC90.
Setting [6] is: Mycobacterium tuberculosis, axenic culture, SAR tables 4-8, read-out: Extracellular IC90.
The mark [7] stands for this setting: HepG2 cytotoxicity IC50 Galactose.
[8] abbreviates: HepG2 cytotoxicity IC50 Glucose.
The mark [9] stands for this setting: Mycobacterium tuberculosis, RAW264.7, 72 h, M. tuberculosis in RAW264.7 cells, MOI 1, 72 h, read-out: Intracellular activity Anti-tubercular activity IC50.
[10] abbreviates: Mycobacterium tuberculosis, RAW264.7, in RAW264.7 macrophages, SAR tables 4-8, read-out: Intracellular Mtb IC50.

Read-outs that look alike come from different tables or passages of the source. Marks after values point to notes of the source that are not given here.

What is called IC50 is the concentration needed to halve the response being measured. As usually defined, the IC90 is the concentration needed for an effect of 90%. Consider `CCOc1ccc(NC(=S)Nc2ccc(C)c(C#N)c2)cc1` [TPN-0073063], for which the “Intracellular activity Cytotoxicity TC50” value in the data set with RAW264.7 cells is recorded as 47 ± 28 ^f µM. Further, the “Intracellular RAW TC50” value in the data set on RAW264.7 cells was 47 ± 28 ^g µM. For the same molecule, the “selectivity index (TC50/IC50)” value with RAW264.7 cells (macrophage TC50 / intracellular IC50) is reported as more than 150. The IC50 with M. tuberculosis [1] (setting [4]) is 5 ± 1.5 µM; with M. tuberculosis [3] (setting [9]), 0.25 ± 0.23 µM; in the data set on M. tuberculosis [3] (Mycobacterium tuberculosis, RAW264.7, read-out: Intracellular Mtb IC50, in RAW264.7 macrophages, SAR tables 4-8) it was 0.3 ± 0.2 µM. Also, the IC90 in the data set with M. tuberculosis [1] (setting [5]) and in the data set on M. tuberculosis [1] (setting [6]) was 9.5 ± 3.2 µM each time. Moreover, the “HepG2 cytotoxicity TC50 Galactose” value with HepG2 cells was 34 ± 6.5 ^e µM. The “HepG2 cytotoxicity TC50 Glucose” value with HepG2 cells was 40 ± 11 ^e µM. In addition, the figures for the half-inhibitory concentration (IC50) at 72 h in data set [2] (setting [7]) and in data set [2] (setting [8]) were 35 ± 6.6 µM and 64 ± 40 µM, respectively.

With `OCc1cn(-c2ccc(Cl)cc2)nc1-c1ccc(Cl)cc1` [TPN-0073562], the “Intracellular activity Cytotoxicity TC50” value in the data set with RAW264.7 cells is reported as 16 ± 11 ^c µM. The “Intracellular RAW TC50” value with RAW264.7 cells is reported as 16 ± 11 ^c µM. Also, the values for the IC50 in the data set with M. tuberculosis [1] (setting [4]), in the data set with M. tuberculosis [3] (setting [9]) and in the data set with M. tuberculosis [3] (setting [10]) were 12 ± 0.5 µM, 2.9 ± 0.52 µM and 2.9 ± 0.5 µM, respectively. Besides, the IC90 in the data set with M. tuberculosis [1] (setting [5]) and in the data set with M. tuberculosis [1] (setting [6]) was 19 ± 1.5 µM each time. Moreover, the “HepG2 cytotoxicity TC50 Galactose” value in the data set with HepG2 cells was 31 ± 1.9 ^e µM. In addition, the “HepG2 cytotoxicity TC50 Glucose” value with HepG2 cells is 31 ± 2.1 ^c µM. In addition, the figures for the IC50 at 72 h in data set [2] (setting [7]) and in data set [2] (setting [8]) were 31 ± 2.2 µM and 31 ± 2.1 µM, respectively.

`OCc1cn(-c2ccc(F)cc2)nc1-c1cc(F)c(Cl)cc1Cl` [TPN-0073565]: the “Intracellular activity Cytotoxicity TC50” value in the data set on RAW264.7 cells is given as >100 ^d µM. Besides, the “Intracellular RAW TC50” value in the data set with RAW264.7 cells is recorded as >100 ^d µM. Moreover, the half-inhibitory concentration (IC50) is 18.5 µM in the data set with M. tuberculosis [1] (setting [4]); more than 20 µM with M. tuberculosis [1] (extracellular, 5 days, OD590); 7 ± 1.8 µM in the data set with M. tuberculosis [3] (setting [9]); 7 ± 1.8 µM with M. tuberculosis [3] (setting [10]). The IC90 with M. tuberculosis [1] (setting [5]) and in the data set on M. tuberculosis [1] (setting [6]) was more than 20 µM in each case. Moreover, in the data set on HepG2 cells, the “HepG2 cytotoxicity TC50 Galactose” value is 43 ± 2.1 ^d µM. For the same molecule, in the data set on HepG2 cells, the “HepG2 cytotoxicity TC50 Glucose” value is 46 ± 2.8 ^e µM. The IC50 at 72 h in data set [2] (setting [7]) was determined as 43 ± 2.3 µM; in data set [2] (setting [8]), 46 ± 2.8 µM.

`CCCOc1ccc(C(=O)Nc2sc(C)c(C)c2C(N)=O)cc1` [TPN-0073576]: the “selectivity index (SI)” value in the data set with RAW264.7 cells is given as more than 10. Also, the “Intracellular activity Cytotoxicity TC50” value with RAW264.7 cells is reported as >100 ^d µM. Besides, the “Intracellular RAW TC50” value with RAW264.7 cells is reported as >100 ^d µM. Further, the IC50 in the data set with M. tuberculosis [1] (setting [4]) is more than 20 µM; in the data set on M. tuberculosis [3] (setting [9]), 1.1 ± 0.36 µM; in the data set with M. tuberculosis [3] (in RAW264.7 macrophages, SAR tables 4-8, listed as 26, read-out: Intracellular Mtb IC50), less than 5 µM; with M. tuberculosis [3] (in RAW264.7 macrophages, SAR tables 4-8, read-out: Intracellular Mtb IC50) it was 1 ± 0.4 µM. Also, the IC90 in the data set on M. tuberculosis [1] (setting [5]) and with M. tuberculosis [1] (setting [6]) was more than 20 µM in each case. Further, the “selectivity (SI) for HepG2” value with HepG2 cells is more than 80. The “HepG2 cytotoxicity TC50 Galactose” value in the data set on HepG2 cells is listed as 92 ± 7 ^c µM. Moreover, the “HepG2 cytotoxicity TC50 Glucose” value in the data set on HepG2 cells was 83 ± 2.9 ^c µM. In addition, the half-maximal inhibitory concentration (IC50) at 72 h in data set [2] (setting [7]) was determined as 89 ± 5.5 µM; in data set [2] (setting [8]), 83 ± 2.9 µM.

On to `O=C(Nc1ccc(Cl)c(Cl)c1)c1cccs1` [TPN-0073578], for which the “Intracellular activity Cytotoxicity TC50” value in the data set with RAW264.7 cells is given as 11 ± 2.2 ^d µM. Moreover, in the data set with RAW264.7 cells, the “Intracellular RAW TC50” value is given as 11 ± 2.2 ^c µM. For the same molecule, the IC50 is more than 20 µM in the data set on M. tuberculosis [1] (setting [4]); 1.7 ± 0.85 µM in the data set with M. tuberculosis [3] (setting [9]); less than 5 µM in the data set on M. tuberculosis [3] (in RAW264.7 macrophages, SAR tables 4-8, listed as 27, read-out: Intracellular Mtb IC50). Also, the IC90 with M. tuberculosis [1] (setting [5]) and with M. tuberculosis [1] (setting [6]) was more than 20 µM in each case. Further, the “HepG2 cytotoxicity TC50 Galactose” value in the data set on HepG2 cells was 4.7 ± 0.54 ^c µM. Moreover, the “HepG2 cytotoxicity TC50 Glucose” value in the data set on HepG2 cells is reported as 3.9 ± 1.1 ^c µM. In addition, the IC50 at 72 h in data set [2] (setting [7]) is 4.7 ± 0.5 µM; in data set [2] (setting [8]) it was 3.9 ± 1.1 µM.

`COc1ccc(OCC(=O)Nc2sc3c(c2C(=O)NC2CCS(=O)(=O)C2)CCCC3)cc1` (stereo not shown) [TPN-0073584]: in the data set with RAW264.7 cells, the “selectivity index (SI)” value is listed as more than 10, the “Intracellular activity Cytotoxicity TC50” value was >100 ^b µM and the “Intracellular RAW TC50” value is >100 ^c µM. In addition, in the data set on M. tuberculosis [1] (setting [4]), the IC50 is more than 20 µM. The IC90 with M. tuberculosis [1] (setting [5]) was more than 20 µM. Further, the 90% effect concentration (IC90) in the data set with M. tuberculosis [1] (setting [6]) is more than 20 µM. Besides, in the data set on HepG2 cells, the “selectivity (SI) for HepG2” value is on record as 20, the “HepG2 cytotoxicity TC50 Galactose” value is >100 ^c µM and the “HepG2 cytotoxicity TC50 Glucose” value is recorded as >100 ^c µM. Also, the IC50 at 72 h in data set [2] (setting [7]) was more than 100 µM. For the same molecule, the IC50 at 72 h in data set [2] (setting [8]) was more than 100 µM. The IC50 in the data set on M. tuberculosis [3] (setting [9]) amounted to 5.1 ± 1.7 µM. Besides, the half-inhibitory concentration (IC50) in the data set with M. tuberculosis [3] (setting [10]) was determined as 5.1 ± 1.7 µM.

Values taken from paper PMC8762250, “Identification of Novel Chemical Scaffolds that Inhibit the Growth of Mycobacterium tuberculosis in Macrophages” (Frontiers in Pharmacology, 2022).
